Results as given in patent publication US8927538B2, “Carbazole linked pyrrolo[2,1-c][1,4]benzodiazefine hybrids as potential anticancer agents and process for the preparation thereof” (Council of Scientific & Industrial Research, priority 2010, dated 2015).

Legend:
A-2780 = experiment: ACTREC in vitro cytotoxicity, A-2780; format: cell-based; details: Ovary A-2780 (Table 4)
Description: (§1) In vitro biological activity studies were carried out at the Advance Center for Treatment Research & Education in Cancer.

MCF7 = experiment: ACTREC in vitro cytotoxicity, MCF7; format: cell-based
Description: as §1

Colo-205 = experiment: ACTREC in vitro cytotoxicity, Colo-205; format: cell-based
Description: as §1

HOP-62 = experiment: ACTREC in vitro cytotoxicity, HOP-62; format: cell-based
Description: as §1

GURAV = experiment: ACTREC in vitro cytotoxicity, GURAV; format: cell-based
Description: as §1

KB = experiment: ACTREC in vitro cytotoxicity, KB; format: cell-based
Description: as §1

Si-Ha = experiment: ACTREC in vitro cytotoxicity, Si-Ha; format: cell-based
Description: as §1

Zr-75-1 = experiment: ACTREC in vitro cytotoxicity, Zr-75-1; format: cell-based
Description: as §1

PC-3 = experiment: ACTREC in vitro cytotoxicity, PC-3; format: cell-based
Description: as §1

A-549 = experiment: ACTREC in vitro cytotoxicity, A-549; format: cell-based; details: Lung A-549 (Table 4)
Description: as §1

[1] = system: duplex-form calf thymus DNA (CT-DNA); experiment: Thermal denaturation studies (DNA binding); details: [PBD]:[DNA] molar ratio 1:5, CT-DNA 100 μM, ligand 20 μM; for ΔTm after incubation at 37 °C for 0 h: pH 7.00, 0 h; for ΔTm after incubation at 37 °C for 18 h: pH 7.00, 18 h
Description: Compounds have been subjected to thermal denaturation studies with duplex-form calf thymus DNA (CT-DNA) using a modification of a reported procedure. Working solutions in aqueous buffer ([…] NaH2PO4/Na2HPO4, 1 mM Na2EDTA, pH 7.00±0.01) containing CT-DNA (100 μM in phosphate) and the PBD (20 μM) have been prepared by addition of concentrated PBD solutions in DMSO to obtain a fixed [PBD]/[DNA] molar ratio of 1:5. The DNA-PBD solutions have been incubated at 37° C. for 0 and 18 hrs prior to analysis. Samples have been monitored at 260 nm using a Beckman DU-800 spectrophotometer fitted with high performance temperature controller, and heated at 1° C. min^−1 in the 40-110° C. range. DNA helix→coil transition temperatures (Tm) have been obtained from the maxima in the d(A260)/dT derivative plots. Drug-induced alterations in DNA melting behavior are given by: […]Tm=Tm(DNA+PBD)-Tm(DNA alone), where the Tm value for the PBD-free CT-DNA is 68.5 […]0.01.
The DNA-binding for these C8-linked carbazole-PBD hybrids has been examined by thermal denaturation studies using calf thymus (CT) DNA. […] Data for 6a, 6b, 6c, 14a, 14b, and 14d and DC-81 are included in Table 5 for comparison.

Compound | GI50 (A-2780) | GI50 (MCF7; Breast MCF7 (Table 4)) | GI50 (MCF7; breast (MCF-7)) | GI50 (Colo-205; Colon Colo-205 (Table 4)) | GI50 (Colo-205; colon (Colo205)) | GI50 (HOP-62; Lung HOP-62 (Table 4)) | GI50 (HOP-62; non small cell lung (HOPO62)) | GI50 (GURAV; Oral GURAV (Table 4)) | GI50 (KB; Oral KB (Table 4)) | GI50 (Si-Ha; Cervix Si-Ha (Table 4)) | GI50 (Zr-75-1; Breast Zr-75-1 (Table 4)) | GI50 (PC-3; Prostate PC-3 (Table 4)) | GI50 (A-549) | ΔTm after incubation at 37 °C for 0 h [1] | ΔTm after incubation at 37 °C for 18 h [1] | GI50 (PC-3; prostate (PC-3)) | GI50 (Si-Ha; Cervix (Si-Ha)) | GI50 (Zr-75-1; breast (Zr-75-1)) | GI50 (GURAV; oral (GURAV), text b39) | GI50 (KB; oral (KB), text b39)
COc1cc2c(cc1OCCCCCCn1c3ccccc3c3ccccc31)N=C[C@@H]1CCCN1C2=O [Compound 6d, 7-Methoxy-8-[6-(9H-9-carbazoly)hexyloxy]-(11aS)-1,2,3,11a-tetrahydro-5H-pyrrolo[2,1-c][1,4]-benzodiazepin-5-one] | 1.7 µM | 1.65 µM | 1.65 µM | 1.62 µM | 1.62 µM | 1.58 µM | 1.58 µM | 1.71 µM | 1.95 µM | 1.58 µM | 2.14 µM |  |  |  |  |  |  |  |  | 
COc1ccc(-c2ccc3c(c2)c2cc(-c4ccc(OC)cc4)ccc2n3CCCOc2cc3c(cc2OC)C(=O)N2CCC[C@H]2C=N3)cc1 [Compound 10d, 7-Methoxy-8-{3-[3,6-di(4-methoxyphenyl)-9H-9-carbazoly]propoxy}-(11aS)-1,2,3,11a-tetrahydro-5H-pyrrolo[2,1-c][1,4]-benzodiazepin-5-one] | 0.15 µM | 0.13 µM | 0.13 µM | 1.7 µM | 1.7 µM | 0.11 µM | 0.11 µM |  | 0.18 µM | 0.17 µM |  | 0.16 µM | 2.1 µM |  |  |  |  |  |  | 
COc1cc2c(cc1OCCCn1c3ccccc3c3ccccc31)N=C[C@@H]1CCCN1C2=O [Compound 6a, 7-Methoxy-8-[3-(9H-9-carbazoly)propoxy]-(11aS)-1,2,3,11a-tetrahydro-5H-pyrrolo[2,1-c][1,4]-benzodiazepin-5-one] | 1.51 µM | 1.85 µM | 1.85 µM | 1.68 µM | 1.68 µM | 1.93 µM | 1.93 µM | 1.6 µM | 1.87 µM | 1.7 µM | 1.89 µM |  |  | 4.2 °C | 5.1 °C |  |  |  |  | 
COc1ccc(-c2ccc3c(c2)c2cc(-c4ccc(OC)cc4)ccc2n3CCCCOc2cc3c(cc2OC)C(=O)N2CCC[C@H]2C=N3)cc1 [Compound 10e, 7-Methoxy-8-{4-[3,6-di(4-methoxyphenyl)-9H-9-carbazoly]butoxy}-(11aS)-1,2,3,11a-tetrahydro-5H-pyrrolo[2,1-c][1,4]-benzodiazepin-5-one] | 2 µM | 0.15 µM | 0.15 µM | 2.9 µM |  |  |  |  |  | 0.17 µM |  | 0.16 µM |  |  |  | 0.16 µM | 0.17 µM |  |  | 
COc1cc2c(cc1OCCCN1CCN(CCCCn3c4ccccc4c4ccccc43)CC1)N=C[C@@H]1CCCN1C2=O [Compound 14b, 7-Methoxy-8-(3-{4-[4-(9H-9-carbazoly)butyloxy]piperazino}propyloxy)-(11aS)-1,2,3,11a-tetrahydro-5H-pyrrolo[2,1-c][1,4]benzodiazepin-5-one] | 0.11 µM | 0.15 µM | 0.15 µM | 0.14 µM | 0.14 µM | 0.14 µM | 0.14 µM | 0.13 µM | 0.14 µM | 0.13 µM | 0.15 µM |  |  | 7.8 °C | 8.5 °C |  |  | 0.15 µM |  | 
COc1cc2c(cc1OCCCCn1c3ccccc3c3ccccc31)N=C[C@@H]1CCCN1C2=O [Compound 6b, 7-Methoxy-8-[4-(9H-9-carbazoly)butoxy]-(11aS)-1,2,3,11a-tetrahydro-5H-pyrrolo[2,1-c][1,4]benzodiazepin-5-one] | 1.57 µM | 2.21 µM |  | 1.7 µM | 1.7 µM | 1.93 µM | 1.93 µM | 1.6 µM | 1.87 µM | 1.7 µM | 1.81 µM |  |  | 4.3 °C | 4.8 °C |  |  | 1.81 µM |  | 
COc1cc2c(cc1OCCCCN1CCN(CCCCn3c4ccccc4c4ccccc43)CC1)N=C[C@@H]1CCCN1C2=O [Compound 14d, 7-Methoxy-8-(4-{-4-[4-(9H-9-carbazoly)butyloxy]piperazino}butyloxy)-(11aS)-1,2,3,11a-tetrahydro-5H-pyrrolo[2,1-c][1,4]benzodiazepin-5-one] | 0.16 µM | 0.17 µM | 0.15 µM | 0.16 µM | 0.16 µM | 1.82 µM |  | 0.17 µM | 0.15 µM | 0.17 µM | 0.15 µM |  |  | 7.9 °C | 8.4 °C |  |  | 0.17 µM | 0.17 µM | 0.15 µM
